Measured values as given in US7273848B2, “Apolipoprotein A-I agonists and their use to treat dyslipidemic disorders” (priority 1997, dated 2007).
Non-standard residues stand in square brackets, D forms with d. Residues, ends and D or L forms follow the SMILES beside them. No end group written: not given here. Aib = CC(C)(N)C(=O)O

Biological target: T1, LCAT (purified from human plasma) (Homo sapiens, UniProt P04180)
T1 construct: from tissue; host or cells: human plasma
T1 sequence (P04180 25-440): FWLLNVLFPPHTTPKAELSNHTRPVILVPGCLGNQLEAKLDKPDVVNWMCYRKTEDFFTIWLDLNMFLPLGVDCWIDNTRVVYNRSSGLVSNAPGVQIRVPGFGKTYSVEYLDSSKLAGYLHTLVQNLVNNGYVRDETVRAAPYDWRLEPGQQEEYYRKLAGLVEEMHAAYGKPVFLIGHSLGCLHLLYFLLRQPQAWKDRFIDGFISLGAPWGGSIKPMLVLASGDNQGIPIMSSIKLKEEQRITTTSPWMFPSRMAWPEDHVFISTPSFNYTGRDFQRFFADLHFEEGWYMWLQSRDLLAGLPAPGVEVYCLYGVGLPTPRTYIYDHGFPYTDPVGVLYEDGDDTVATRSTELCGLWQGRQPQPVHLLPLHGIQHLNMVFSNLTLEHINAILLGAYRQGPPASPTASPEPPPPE
Experiment: LCAT activation assay
Type: biochemical
Conditions: LCAT activation as compared with native human ApoA-I (= 100%), equivalent masses
Method in brief: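 Substrate SUVs of EPC or POPC with 14C-cholesterol (20:1 molar ratio), in 10 mM Tris, 0.14 M NaCl, 1 mM EDTA, pH 7.4, were preincubated with peptide or equal mass of plasma ApoA-I. Reaction started with human plasma LCAT; activation was measured as cholesterol-to-ester conversion relative to ApoA-I (100%).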

Row | Compound | ACTIVITY (%) LCAT
1 | CC(C)C[C@H](NC(=O)[C@H](C)NC(=O)[C@H](CCC(=O)O)NC(=O)[C@H](CC(C)C)NC(=O)C(C)(C)NC(=O)[C@H](CCC(=O)O)NC(=O)[C@H](CC(N)=O)NC(=O)[C@H](CC(C)C)NC(=O)[C@H](CCCCN)NC(=O)[C@H](CCC(=O)O)NC(=O)[C@H](CCCNC(=N)N)NC(=O)[C@H](Cc1ccccc1)NC(=O)[C@H](CCC(=O)O)NC(=O)[C@H](CC(=O)O)NC(=O)[C@H](CC(C)C)NC(=O)[C@H](CCCCN)NC(=O)[C@@H]1CCCN1)C(=O)N[C@@H](CCCCN)C(=O)N[C@@H](CCC(N)=O)C(=O)N[C@@H](CCCCN)C(=O)N[C@@H](CC(C)C)C(=O)N[C@@H](CCCCN)C(=O)O [compound 115, PKLDEFREKLNEXLEALKQKLK] (H-PKLDEFREKLNE[Aib]LEALKQKLK-OH) | 0%
2 | PVLDLFERLLNELLEALQKKLK [compound 80] | 9%
3 | Ac-PVLDLFRELLNELLQKLK-NH2 [compound 218] | 29%
4 | CC(C)C[C@H](NC(=O)[C@H](C)NC(=O)[C@H](CCC(=O)O)NC(=O)C(C)(C)NC(=O)C(C)(C)NC(=O)[C@H](CCC(=O)O)NC(=O)[C@H](CC(N)=O)NC(=O)[C@H](CC(C)C)NC(=O)[C@H](CCCCN)NC(=O)[C@H](CCC(=O)O)NC(=O)[C@H](CCCNC(=N)N)NC(=O)[C@H](Cc1ccccc1)NC(=O)[C@H](CCC(=O)O)NC(=O)[C@H](CC(=O)O)NC(=O)[C@H](CC(C)C)NC(=O)[C@@H](NC(=O)[C@@H]1CCCN1)C(C)C)C(=O)N[C@@H](CCCCN)C(=O)N[C@@H](CCC(N)=O)C(=O)N[C@@H](CCCCN)C(=O)N[C@@H](CC(C)C)C(=O)N[C@@H](CCCCN)C(=O)O [compound 110, PVLDEFREKLNEXXEALKQKLK] (H-PVLDEFREKLNE[Aib][Aib]EALKQKLK-OH) | 0%
5 | Ac-PALELFKDLLEEFRQRLK-NH2 [compound 213] | 42%
6 | CC(C)C[C@H](NC(=O)[C@H](C)NC(=O)[C@H](CCC(=O)O)NC(=O)[C@H](CC(C)C)NC(=O)C(C)(C)NC(=O)[C@H](CCC(=O)O)NC(=O)[C@H](CC(N)=O)NC(=O)[C@H](CC(C)C)NC(=O)[C@H](CCCCN)NC(=O)[C@H](CCC(=O)O)NC(=O)[C@H](Cc1c[nH]c2ccccc12)NC(=O)[C@H](Cc1ccccc1)NC(=O)[C@H](CCC(=O)O)NC(=O)[C@H](CC(=O)O)NC(=O)[C@H](CC(C)C)NC(=O)[C@@H](NC(=O)[C@@H]1CCCN1)C(C)C)C(=O)N[C@@H](CCCCN)C(=O)N[C@@H](CCC(N)=O)C(=O)N[C@@H](CCCCN)C(=O)N[C@@H](CC(C)C)C(=O)N[C@@H](CCCCN)C(=O)O [compound 73, PVLDEFWEKLNEXLEALKQKLK] (H-PVLDEFWEKLNE[Aib]LEALKQKLK-OH) | 10%
7 | CC(C)C[C@H](NC(=O)[C@H](C)NC(=O)[C@H](CCC(=O)O)NC(=O)[C@H](CC(C)C)NC(=O)C(C)(C)NC(=O)[C@H](CCCCN)NC(=O)[C@H](CC(N)=O)NC(=O)[C@H](CC(C)C)NC(=O)[C@H](CCCCN)NC(=O)[C@H](CCC(=O)O)NC(=O)[C@H](CCCNC(=N)N)NC(=O)[C@H](Cc1ccccc1)NC(=O)[C@H](CCC(=O)O)NC(=O)[C@H](CC(=O)O)NC(=O)[C@H](CC(C)C)NC(=O)[C@@H](NC(=O)[C@@H]1CCCN1)C(C)C)C(=O)N[C@@H](CCCCN)C(=O)N[C@@H](CCC(N)=O)C(=O)N[C@@H](CCCCN)C(=O)N[C@@H](CC(C)C)C(=O)N[C@@H](CCCCN)C(=O)O [compound 77, PVLDEFREKLNKXLEALKQKLK] (H-PVLDEFREKLNK[Aib]LEALKQKLK-OH) | 9%
8 | PVLDAFRELAEALAQLKK [compound 225] | 1%
9 | Ac-DVLDLFRELLEELKQKLK-NH2 [compound 221] | 12%
10 | CC(C)C[C@H](NC(=O)[C@H](C)NC(=O)[C@H](CCC(=O)O)NC(=O)[C@H](CC(C)C)NC(=O)C(C)(C)NC(=O)[C@H](CCC(=O)O)NC(=O)[C@H](CC(N)=O)NC(=O)[C@H](CC(C)C)NC(=O)[C@H](CCCCN)NC(=O)[C@H](CCC(=O)O)NC(=O)[C@H](CCCNC(=N)N)NC(=O)[C@H](Cc1ccccc1)NC(=O)[C@H](CCC(=O)O)NC(=O)[C@H](CC(=O)O)NC(=O)[C@H](CC(C)C)NC(=O)[C@H](Cc1c[nH]cn1)NC(=O)[C@@H]1CCCN1)C(=O)N[C@@H](CCCCN)C(=O)N[C@@H](CCC(N)=O)C(=O)N[C@@H](CCCCN)C(=O)N[C@@H](CC(C)C)C(=O)N[C@@H](CCCCN)C(=O)O [compound 116, PHLDEFREKLNEXLEALKQKLK] (H-PHLDEFREKLNE[Aib]LEALKQKLK-OH) | 0%
11 | CC(C)C[C@H](NC(=O)[C@H](C)NC(=O)[C@H](CCC(=O)O)NC(=O)[C@H](CC(C)C)NC(=O)[C@H](CC(C)C)NC(=O)[C@H](CCC(=O)O)NC(=O)[C@H](CC(N)=O)NC(=O)[C@H](CC(C)C)NC(=O)[C@H](CC(C)C)NC(=O)[C@H](CCC(=O)O)NC(=O)[C@H](CCCNC(=N)N)NC(=O)[C@H](Cc1ccccc1)NC(=O)[C@H](CC(C)C)NC(=O)[C@H](CC(=O)O)NC(=O)[C@H](CC(C)C)NC(=O)[C@@H](NC(=O)[C@H]1CCCN1)C(C)C)C(=O)N[C@@H](CCCCN)C(=O)N[C@@H](CCC(N)=O)C(=O)N[C@@H](CCCCN)C(=O)N[C@@H](CC(C)C)C(=O)N[C@@H](CCCCN)C(=O)O [compound 21] | 57%
12 | CC(C)C[C@H](NC(=O)[C@H](C)NC(=O)[C@H](CCC(=O)O)NC(=O)[C@H](CC(C)C)NC(=O)C(C)(C)NC(=O)[C@H](CCC(=O)O)NC(=O)[C@H](CC(N)=O)NC(=O)[C@H](CC(C)C)NC(=O)[C@H](CCCCN)NC(=O)[C@H](CCC(=O)O)NC(=O)[C@H](CCCNC(=N)N)NC(=O)[C@H](Cc1ccccc1)NC(=O)[C@H](CCC(=O)O)NC(=O)[C@H](CC(=O)O)NC(=O)[C@H](Cc1c[nH]c2ccccc12)NC(=O)[C@@H](NC(=O)[C@@H]1CCCN1)C(C)C)C(=O)N[C@@H](CCCCN)C(=O)N[C@@H](CCC(N)=O)C(=O)N[C@@H](CCCCN)C(=O)N[C@@H](CC(C)C)C(=O)N[C@@H](CCCCN)C(=O)O [compound 52, PVWDEFREKLNEXLEALKQKLK] (H-PVWDEFREKLNE[Aib]LEALKQKLK-OH) | 20%
13 | CC(C)C[C@H](NC(=O)[C@H](C)NC(=O)[C@H](CCC(=O)O)NC(=O)[C@H](CC(C)C)NC(=O)[C@H](CC(C)C)NC(=O)[C@H](CCC(=O)O)NC(=O)[C@H](CC(N)=O)NC(=O)[C@H](CC(C)C)NC(=O)[C@H](CC(C)C)NC(=O)[C@H](CCC(=O)O)NC(=O)[C@H](CCCNC(=N)N)NC(=O)[C@H](Cc1ccccc1)NC(=O)[C@H](CC(C)C)NC(=O)[C@H](CC(=O)O)NC(=O)[C@H](CC(C)C)NC(=O)[C@H](NC(=O)[C@H]1CCCN1)C(C)C)C(=O)N[C@@H](CCCCN)C(=O)N[C@@H](CCC(N)=O)C(=O)N[C@@H](CCCCN)C(=O)N[C@@H](CC(C)C)C(=O)N[C@@H](CCCCN)C(=O)O [compound 48] | 22%
14 | PVLELFENLLERLLDLLQKKLK [compound 165] | 23%
15 | Ac-PVLDLFRELLEEGKQKLK-NH2 [compound 229] | 0%
